US20110230476A1, “PI3 KINASE INHIBITORS AND USES THEREOF” (AVILA THERAPEUTICS, INC., priority 2009, published 2011)

Columns and labels:
[1] = target: T1, PI3Kα (p110α/p85α) (Homo sapiens, UniProt P42336); test: HTRF assay, potency against active PI3Kα; format: biochemical; conditions: HTRF; [ATP]=50 μM, [di-C8-PIP2]=10 μM; 30 min pre-incubation; read-out: PI3Kα Inhibition
T1 construct: purchased BPS Bioscience (San Diego, Calif.) or Millipore (Billerica, Mass.)
Method in brief: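 IC50 came from a variable-slope fit of % inhibition, calculated from the HTRF emission ratio relative to wells with and without enzyme. Reactions with the active enzyme complex ran 30-60 minutes at 25 °C after ATP addition before stop and detection reagents.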

[2] = system: Phospho-Akt(Ser473); test: Dose response in SKOV3 cells as determined by in-cell Western; format: cell-based; conditions: Homo sapiens, SK-OV-3; SKOV3 cells, 1 hr; read-out: pAKT Inhibition in cell Western
Description: Dose Response in SKOV3 Cells as Determined by in-Cell Western
Twenty four hours later the media was removed and replaced with 100 ul media containing test compound or control compound and cells were returned to the incubator for 1 hr. At the end of the hour, the media was removed and the cells were washed once with PBS, then fixed for 20 minutes at room temperature in 4% formaldehyde in PBS. The formaldehyde was removed and cells were washed 5 times for 5 minutes with 100 ul of Permeabilization Buffer (PBS+0.1% Triton X-100) at room temperature with gentle shaking. The last wash was removed and replaced with 150 ul of Odyssey Blocking Buffer (Li-Cor, Lincoln, Nebr.) and incubated for 90 minutes at room temperature with gentle shaking.
The Blocking Buffer was then replaced with 50 ul of primary antibody mix (rabbit anti-Phospho-Akt(Ser473) at 1:100 (Cell Signaling Technology, Boston, Mass.) and mouse anti-tubulin at 1:5000 (Sigma Aldrich, St. Louis, Mo.) diluted in Odyssey Blocking Buffer) and incubated overnight at room temperature with gentle shaking.
The next morning, the antibody mix was removed and the wells were washed 5 times for 5 minutes with PBS+0.1% Tween-20. The last wash was replaced with 50 ul of secondary antibody mix (goat anti-rabbit-IRDye-680 and goat anti-mouse-IRDye-800 (Li-Cor), both diluted 1:1000 in Odyssey Blocking Buffer+0.2% Tween-20) and incubated for 1 hour at room temperature with gentle shaking. The antibody mix was removed and the wells were washed 5 times for 5 minutes in PBS+0.1% Tween-20, then 1 time with ddH2O.
The plates were scanned on an Odyssey machine (Li-Cor) with a 3 mm focus offset at an intensity of 8 in both channels and the data was analyzed using the Odyssey software.

T1 sequence (P42336 whole entry): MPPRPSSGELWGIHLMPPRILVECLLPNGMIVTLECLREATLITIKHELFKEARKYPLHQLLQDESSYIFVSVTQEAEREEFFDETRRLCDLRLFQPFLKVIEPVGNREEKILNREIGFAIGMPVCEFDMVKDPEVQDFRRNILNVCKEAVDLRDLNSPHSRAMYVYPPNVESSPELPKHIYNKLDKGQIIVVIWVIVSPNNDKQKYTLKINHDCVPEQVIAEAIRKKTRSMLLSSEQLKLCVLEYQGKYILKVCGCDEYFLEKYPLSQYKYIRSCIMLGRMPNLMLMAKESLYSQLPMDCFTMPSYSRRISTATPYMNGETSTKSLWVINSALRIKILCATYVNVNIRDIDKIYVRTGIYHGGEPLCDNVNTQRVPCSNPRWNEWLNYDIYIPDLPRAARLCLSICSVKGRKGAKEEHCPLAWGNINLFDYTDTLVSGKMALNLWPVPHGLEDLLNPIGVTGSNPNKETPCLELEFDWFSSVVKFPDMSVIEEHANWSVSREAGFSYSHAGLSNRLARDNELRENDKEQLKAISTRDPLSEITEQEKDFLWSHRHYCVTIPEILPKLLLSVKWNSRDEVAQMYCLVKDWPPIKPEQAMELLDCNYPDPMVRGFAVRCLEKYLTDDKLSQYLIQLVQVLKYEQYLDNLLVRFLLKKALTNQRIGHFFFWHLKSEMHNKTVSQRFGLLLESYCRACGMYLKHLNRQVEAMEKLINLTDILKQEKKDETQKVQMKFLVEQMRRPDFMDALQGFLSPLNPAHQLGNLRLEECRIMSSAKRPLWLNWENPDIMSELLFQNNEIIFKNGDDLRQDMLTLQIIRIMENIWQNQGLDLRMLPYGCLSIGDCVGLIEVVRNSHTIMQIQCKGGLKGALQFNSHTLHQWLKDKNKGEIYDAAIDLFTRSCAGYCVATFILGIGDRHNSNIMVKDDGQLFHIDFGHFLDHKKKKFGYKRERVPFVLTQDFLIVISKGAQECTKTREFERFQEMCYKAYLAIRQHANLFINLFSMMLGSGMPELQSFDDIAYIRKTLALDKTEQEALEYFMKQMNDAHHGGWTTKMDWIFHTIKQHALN
T1 sequence (P27986 whole entry partner): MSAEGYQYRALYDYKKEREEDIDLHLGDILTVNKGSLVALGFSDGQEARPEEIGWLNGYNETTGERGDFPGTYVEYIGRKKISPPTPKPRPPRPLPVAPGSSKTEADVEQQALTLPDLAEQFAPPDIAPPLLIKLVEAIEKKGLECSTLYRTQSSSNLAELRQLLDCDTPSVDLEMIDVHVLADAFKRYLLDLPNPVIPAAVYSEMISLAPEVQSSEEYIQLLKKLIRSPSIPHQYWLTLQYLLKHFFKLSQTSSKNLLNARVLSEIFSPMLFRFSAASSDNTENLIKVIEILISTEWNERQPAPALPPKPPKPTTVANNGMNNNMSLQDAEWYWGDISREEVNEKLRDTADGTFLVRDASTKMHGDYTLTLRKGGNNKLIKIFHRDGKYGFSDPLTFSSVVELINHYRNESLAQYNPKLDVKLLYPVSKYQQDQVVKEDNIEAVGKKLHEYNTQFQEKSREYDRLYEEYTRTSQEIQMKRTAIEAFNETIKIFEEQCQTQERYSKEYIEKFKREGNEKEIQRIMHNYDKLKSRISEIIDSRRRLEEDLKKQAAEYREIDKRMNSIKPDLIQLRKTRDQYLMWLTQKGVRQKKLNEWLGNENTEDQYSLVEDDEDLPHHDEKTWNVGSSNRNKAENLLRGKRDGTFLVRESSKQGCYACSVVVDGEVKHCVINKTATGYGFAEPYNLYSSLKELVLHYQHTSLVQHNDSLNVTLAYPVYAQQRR

Row | Structure (SMILES) | IC50 [1] | EC50 [2]
1 | C/C=C/C(=O)CCC(=O)NCc1ccc(-c2cc3nc(-c4cccc5[nH]ncc45)nc(N4CCOCC4)c3s2)cc1 [II-a-115, (E)-N-(4-(2-(1H-indazol-4-yl)-4-morpholinothieno[3,2-d]pyrimidin-6-yl)benzyl)-4-oxohept-5-enamide] | 10 to 100 nM | 100 to 1000 nM
2 | C=CC(=O)Nc1ccc(C(=O)N2CCN(Cc3cc4nc(-c5cccc6[nH]ncc56)nc(N5CCOCC5)c4s3)CC2)cc1 [II-a-117, N-(4-(4-((2-(1H-indazol-4-yl)-4-morpholinothieno[3,2-d]pyrimidin-6-yl)methyl)piperazine-1-carbonyl)phenyl)acrylamide] | 100 to 1000 nM | 10 to 100 nM
3 | C=CC(=O)Nc1ccc(S(=O)(=O)N2CCN(Cc3cc4nc(-c5cccc6[nH]ncc56)nc(N5CCOCC5)c4s3)CC2)cc1 [II-a-118, N-(4-(4-((2-(1H-indazol-4-yl)-4-morpholinothieno[3,2-d]pyrimidin-6-yl)methyl)piperazin-1-ylsulfonyl)phenyl)acrylamide] | 100 to 1000 nM | 100 to 1000 nM
4 | CC(C)=CC(=O)CCC(=O)NCc1ccc(-c2cc3nc(-c4cccc(O)c4)nc(N4CCOCC4)c3s2)cc1 [II-a-122, N-(4-(2-(3-hydroxyphenyl)-4-morpholinothieno[3,2-d]pyrimidin-6-yl)benzyl)-6-methyl-4-oxohept-5-enamide] | 10 to 100 nM | 100 to 1000 nM
5 | C/C=C/C(=O)CCC(=O)N1CCC(O)(CCc2cc3nc(-c4cccc(O)c4)nc(N4CCOCC4)c3s2)CC1 [II-a-123, (E)-1-(4-hydroxy-4-(2-(2-(3-hydroxyphenyl)-4-morpholinothieno[3,2-d]pyrimidin-6-yl)ethyl)piperidin-1-yl)hept-5-ene-1,4-dione] | < 10 nM | 10 to 100 nM
6 | O=C(/C=C/c1cccs1)CCC(=O)N1CCN(Cc2cc3nc(-c4cccc5[nH]ncc45)nc(N4CCOCC4)c3s2)CC1 [II-a-126, (E)-1-(4-((2-(1H-indazol-4-yl)-4-morpholinothieno[3,2-d]pyrimidin-6-yl)methyl)piperazin-1-yl)-6-(thiophen-2-yl)hex-5-ene-1,4-dione] | 100 to 1000 nM | ≤ 10 nM
7 | C=CC(=O)Nc1ccc(N2CCN(C(=O)c3cc4nc(-c5cccc(O)c5)nc(N5CCOCC5)c4s3)CC2)cc1 [II-a-127, N-(4-(4-(2-(3-hydroxyphenyl)-4-morpholinothieno[3,2-d]pyrimidine-6-carbonyl)piperazin-1-yl)phenyl)acrylamide] | 100 to 1000 nM | ≤ 10 nM
8 | Cn1cncc1/C=C/C(=O)CCC(=O)N1CCN(Cc2cc3nc(-c4cccc5[nH]ncc45)nc(N4CCOCC4)c3s2)CC1 [II-a-130, (E)-1-(4-((2-(1H-indazol-4-yl)-4-morpholinothieno[3,2-d]pyrimidin-6-yl)methyl)piperazin-1-yl)-6-(1-methyl-1H-imidazol-5-yl)hex-5-ene-1,4-dione] | 100 to 1000 nM | 10 to 100 nM
9 | O=C(/C=C/c1cccnc1)CCC(=O)N1CCN(Cc2cc3nc(-c4cccc5[nH]ncc45)nc(N4CCOCC4)c3s2)CC1 [II-a-132, (E)-1-(4-((2-(1H-indazol-4-yl)-4-morpholinothieno[3,2-d]pyrimidin-6-yl)methyl)piperazin-1-yl)-6-(pyridin-3-yl)hex-5-ene-1,4-dione] | 100 to 1000 nM | 10 to 100 nM
10 | O=C(/C=C/c1ccccn1)CCC(=O)N1CCN(Cc2cc3nc(-c4cccc5[nH]ncc45)nc(N4CCOCC4)c3s2)CC1 [II-a-133, (E)-1-(4-((2-(1H-indazol-4-yl)-4-morpholinothieno[3,2-d]pyrimidin-6-yl)methyl)piperazin-1-yl)-6-(pyridin-2-yl)hex-5-ene-1,4-dione] | 100 to 1000 nM | 10 to 100 nM
11 | O=C(/C=C/c1ccccc1)CCCC(=O)N1CC=C(c2cc3nc(-c4cccc5[nH]ncc45)nc(N4CCOCC4)c3s2)CC1 [II-a-137, (E)-1-(4-(2-(1H-indazol-4-yl)-4-morpholinothieno[3,2-d]pyrimidin-6-yl)-5,6-dihydropyridin-1(2H)-yl)-7-phenylhept-6-ene-1,5-dione] | 10 to 100 nM | 10 to 100 nM
12 | Cc1ccccc1/C=C/C(=O)CCC(=O)N1CCN(Cc2cc3nc(-c4cccc5[nH]ncc45)nc(N4CCOCC4)c3s2)CC1 [II-a-138, (E)-1-(4-((2-(1H-indazol-4-yl)-4-morpholinothieno[3,2-d]pyrimidin-6-yl)methyl)piperazin-1-yl)-6-o-tolylhex-5-ene-1,4-dione] | 10 to 100 nM | 100 to 1000 nM
13 | Cc1ccc(/C=C/C(=O)CCC(=O)N2CCN(Cc3cc4nc(-c5cccc6[nH]ncc56)nc(N5CCOCC5)c4s3)CC2)cc1 [II-a-139, (E)-1-(4-((2-(1H-indazol-4-yl)-4-morpholinothieno[3,2-d]pyrimidin-6-yl)methyl)piperazin-1-yl)-6-p-tolylhex-5-ene-1,4-dione] | 10 to 100 nM | 100 to 1000 nM
14 | O=C(/C=C/c1ccccc1F)CCC(=O)N1CCN(Cc2cc3nc(-c4cccc5[nH]ncc45)nc(N4CCOCC4)c3s2)CC1 [II-a-140, (E)-1-(4-((2-(1H-indazol-4-yl)-4-morpholinothieno[3,2-d]pyrimidin-6-yl)methyl)piperazin-1-yl)-6-(2-fluorophenyl)hex-5-ene-1,4-dione] | 10 to 100 nM | 100 to 1000 nM
15 | O=C(/C=C/c1ccncc1)CCC(=O)N1CCN(Cc2cc3nc(-c4cccc5[nH]ncc45)nc(N4CCOCC4)c3s2)CC1 [II-a-141, (E)-1-(4-((2-(1H-indazol-4-yl)-4-morpholinothieno[3,2-d]pyrimidin-6-yl)methyl)piperazin-1-yl)-6-(pyridin-4-yl)hex-5-ene-1,4-dione] | 10 to 100 nM | 100 to 1000 nM
16 | COC/C=C(\C)C(=O)CCC(=O)N1CCN(Cc2cc3nc(-c4cccc5[nH]ncc45)nc(N4CCOCC4)c3s2)CC1 [II-a-161, (E)-1-(4-((2-(1H-indazol-4-yl)-4-morpholinothieno[3,2-d]pyrimidin-6-yl)methyl)piperazin-1-yl)-7-methoxy-5-methylhept-5-ene-1,4-dione] | 100 to 1000 nM | ≤ 10 nM
17 | CC(C)=CC(=O)CCCC(=O)N(C)Cc1cc2nc(-c3cnc(N)nc3)nc(N3CCOCC3)c2s1 [II-a-174, N-((2-(2-aminopyrimidin-5-yl)-4-morpholinothieno[3,2-d]pyrimidin-6-yl)methyl)-N,7-dimethyl-5-oxooct-6-enamide] | 10 to 100 nM | ≤ 10 nM
18 | C=CC(=O)Nc1ccc(C(=O)N(C)Cc2cc3nc(-c4cnc(N)nc4)nc(N4CCOCC4)c3s2)cc1 [II-a-175, 4-acrylamido-N-((2-(2-aminopyrimidin-5-yl)-4-morpholinothieno[3,2-d]pyrimidin-6-yl)methyl)-N-methylbenzamide] | 10 to 100 nM | ≤ 10 nM
19 | COc1c(OCCOCCNS(C)(=O)=O)ccc2c1N=C(NC(=O)c1cccnc1)N1CCN=C21 [IX-ref] | – | 10 to 100 nM
20 | CNC(=O)Nc1ccc(-c2nc(N3CCOCC3)c3cnn(C4CCN(C(=O)OC)CC4)c3n2)cc1 [VII-ref] | – | 10 to 100 nM
21 | COc1ncc(-c2ccc3nccc(-c4ccncc4)c3c2)cc1NS(=O)(=O)c1ccc(F)cc1F [X-ref] | – | ≤ 10 nM
22 | Nc1ncnc2c1c(-c1cnc3[nH]ccc3c1)nn2C1CCCC1 [XI-ref] | – | 10 to 100 nM
23 | C/C=C/C(=O)CCC(=O)N1CCC2(CC1)CN(c1cc(-c3cnc(N)nc3)nc(N3CCOCC3)c1)C2 [XII-40, (E)-1-(2-(2-(2-aminopyrimidin-5-yl)-6-morpholinopyridin-4-yl)-2,7-diazaspiro[3.5]nonan-7-yl)hept-5-ene-1,4-dione] | 100 to 1000 nM | –
24 | CC(C)=CC(=O)CCCC(=O)N1CC2(CCN(c3cc(-c4cnc(N)nc4)nc(N4CCOCC4)c3)CC2)C1 [XII-44, 1-(7-(2-(2-aminopyrimidin-5-yl)-6-morpholinopyridin-4-yl)-2,7-diazaspiro[3.5]nonan-2-yl)-7-methyloct-6-ene-1,5-dione] | > 1000 nM | –
25 | C=CC(=O)Nc1ccc(C(=O)N2CCN(c3cc(-c4cnc(N)nc4)nc(N4CCOCC4)c3)CC2)cc1 [XII-53, N-(4-(4-(2-(2-aminopyrimidin-5-yl)-6-morpholinopyridin-4-yl)piperazine-1-carbonyl)phenyl)acrylamide] | 100 to 1000 nM | –
26 | CCCC(=O)CCC(=O)N1CCC(n2nc(-c3ccc(OC)c(OC)c3)c3c(N)ncnc32)CC1 [XI^R-1, 1-(4-(4-amino-3-(3,4-dimethoxyphenyl)-1H-pyrazolo[3,4-d]pyrimidin-1-yl)piperidin-1-yl)heptane-1,4-dione] | > 1000 nM | –
27 | CCC(=O)N(C)CC(=O)N1CCC(n2nc(-c3ccc(OC)c(OC)c3)c3c(N)ncnc32)CC1 [XI^R-2, N-(2-(4-(4-amino-3-(3,4-dimethoxyphenyl)-1H-pyrazolo[3,4-d]pyrimidin-1-yl)piperidin-1-yl)-2-oxoethyl)-N-methylpropionamide] | > 1000 nM | –
